In one series the test system is HepG2 cells. The experiment in a line: In vitro cytotoxicity of polymers and DOX-loaded particles, MTT assay. The conditions noted are these: 0.01-100 ug/mL, 24, 48 and 72 hr. The format is cell-based, human. As for the experimental part: In vitro cytotoxicity of DOX-loaded particles. To evaluate the cytotoxicity of the polymers and DOX-loaded particles, samples were transfected in a dose-dependent manner and evaluated by an MTT-based cell viability assay using HepG2 cells. Cell Culture: HepG2 cells (a human hepatoma cell line) were cultured in DMEM supplemented with 10% FBS and D-glucose (4.5 g/L). Cells were grown and maintained under humidified air containing 5% CO2 at 37° C. Cell Viability: a MTT assay was used to evaluate the cell viability of bile acid-linked polymers and DOX-loaded particles. HepG2 cells were seeded into a 96-well plate at a cell density of 5×10^3 cells/well in 100 μL media. […] MTT (10 μL; 5 mg/mL) solution was then added to the wells and incubated for 4 hr. All remaining media was aspirated, and DMSO (100 μL) was added to dissolve the formazan crystals produced from living cells with 10 min incubation at 37° C. The absorbance of the cells was measured at 570 nm and their cell viability was calculated.

For series [1], the system named is HepG2 xenograft mouse model. Nature of the series: In vivo efficacy in tumor bearing animal model. The method, then: In vivo efficacy in a tumor bearing animal model. The in vivo anticancer efficacy of free DOX and the DDP/H-TCA composition was evaluated in a HepG2 xenograft mouse model. Animals which were treated with free DOX delivered via both orally and via IV administration were used as a control group, and DDP/H-TCA compositions were administered orally every 3 days at a dose of 4 mg DOX/kg, up to 18 days.
HepG2 cells (5×10^6 cells/mL) in 100 μL PBS were injected subcutaneously into the back of each mouse. When the tumor size reached approximately 100-150 mm^3, each mouse received an oral administration of PBS, 4 mg/kg DOX, or 4 mg/kg DOX in a DDP/H-TCA composition, once every three days. In addition, an equal amount of doxorubicin was intravenously (IV) administered in a control group. Tumors were measured every three days with a digital caliper and the tumor volume was calculated using the equation shown below.
To achieve a relatively high concentration, the lyophilized powder of DDP/H-TCA particles was reconstituted in DI water just prior to in vivo administration. First, the tumor growth inhibition efficacy of bile acid-coated DOX-loaded particles was investigated in a mouse xenograft model. Doxorubicin (DOX) at a dose of 4 mg/kg, or an equivalent amount of DOX formulated as DDP/H-TCA particles, was prepared and delivered via IV or oral administration every 3 days up to 18 days to monitor tumor progression. DOX-loaded particles without a bile acid (i.e. no TCA) were also tested as a non-targeted control formulation to evaluate the tumor inhibition efficacy of the TCA. Because tumors in the PBS control group were quite aggressive and reached over 10% of the animals' body weight around day 18, all treatments were terminated and all mice were sacrificed at day 18.

Series [2] is described as follows: DOX biodistribution in tumor-bearing mice (DOX fluorescence). In kind it is in vivo, HepG2 tumor-bearing NOD/SCID mice. The conditions noted are these: IV injection, 4 hr, versus orally administered groups. The method, then: Biodistribution. A biodistribution study was performed in HepG2 tumor-bearing NOD/SCID mice. The major organs and intestinal tract of each mouse were collected 4 hr after administration of the formulations. The liver, kidney, heart, stomach, small intestine including duodenum, jejunum, ileum, and tumor of each mouse was collected and suspended in 70% ethanol with 0.3 N HCl. The samples were then homogenized to extract the doxorubicin, and then the samples were refrigerated for 24 hr and centrifuged to collect supernatant. For analysis, 200 μL of the supernatant was loaded in a black opaque plate and DOX fluorescence was measured using a plate reader, where the wavelengths of excitation and emission were 470 and 590 nm, respectively.

For a further series, the system named is HT-29 xenograft. Nature of the series: In vivo therapeutic efficacy in tumor bearing animal model. On the set-up: species or system NOD/SCID mice. The following applies: oral, 10 mg/kg DOX, over 12 days. The method, then: In vivo therapeutic efficacy in a tumor bearing animal model. The in vivo anticancer efficacy of free DOX, the cationic DOX-loaded liposome without a bile acid coating (“DOX-liposome”), and the anionic DOX-loaded liposome with the CS-TCA coating (“DL/CS-TCA”) was evaluated in a xenograft mouse model. HT-29 cells (1×10^7 cells per mouse) were subcutaneously injected into the back of NOD/SCID mice (n=3). When the tumor size reached approximately 100-150 mm^3, each mouse received an oral administration of PBS, 10 mg/kg free DOX, 10 mg/kg DOX in the DOX-liposome composition, or 10 mg/kg DOX in the DL/CS-TCA composition, once every two days. Tumor size and body weight were measured every 2 days. Tumor volumes were measured with a digital caliper and the tumor volume was calculated using the equation shown below. Tumor volume=(Length×width^2)/2

The conditions of series [3]: cited from earlier work.
For series [4] the following is noted: cited from earlier work. The source holds these as a separate data set.
The subject of the next series is caco-2 cells. The experiment in a line: In vitro cellular uptake of insulin-Ce6 liposomes. In kind it is cell-based, Human. The following applies: insulin-Ce6 10 ug/mL, 4 hr. The method, then: In vitro cellular uptake. Human epithelial colorectal adenocarcinoma cells (caco-2 cells) were maintained in Dulbeco's Modified Eagle's Medium (DMEM) with 1% penicillin-streptomycin and 10% FBS in a humidified standard incubator at 37° C. with a 5% CO2 atmosphere. Prior to testing, cells (1×10^5 cells/mL) that were grown as a monolayer were harvested via trypsinization using a 0.25% (wt/vol) trypsin/0.03% (wt/vol) EDTA solution. Caco-2 cells suspended in DMEM were seeded onto each well plate and cultured for 24 hours prior to the in vitro cell testing. The cellular uptake of the liposomes (provided in an amount equivalent to an insulin-Ce6 concentration of 10 ug/mL, treated for 4 hr) was monitored by FACSCalibur Flow Cytometer (Becton Dickinson, USA). In addition, the localization of the liposome was examined by fluorescence of the insulin-Ce6 loaded liposome using a confocal laser scanning microscope.

For `COc1cccc2c1C(=O)c1c(O)c3c(c(O)c1C2=O)C[C@@](O)(C(=O)CO)C[C@@H]3O[C@H]1C[C@H](N)[C@H](O)[C@H](C)O1` [DOX, doxorubicin], in the series on HepG2 cells, the “cytotoxicity (cell viability)” value is listed as “highest dose-dependent cytotoxicity”. In addition, the body weight entry in series [1] (4 mg DOX/kg every 3 days up to 18 days) is on record as “no significant weight loss”. The “inhibition of tumor growth” value in series [1] (IV, 4 mg/kg every 3 days, up to 18 days) is “greatest inhibition of tumor growth”. In addition, in series [1] (oral, 4 mg DOX/kg every 3 days, up to 18 days), the “increase in tumor volume” value is recorded as ~1400%. Also, the “DOX concentration in heart and liver tissues” value in series [2] was “higher concentration of DOX was seen in the heart and liver tissues”. Also, in the series on HT-29 xenograft, the “change in tumor volume” value is “not statistically better at reducing tumor volume than the buffer” and the relative body weight entry is listed as “decrease slightly”. The oral bioavailability result in series [3] was “about 5%”. In series [4], the pKa was 7.2-8.0.

In the case of “free insulin: Ce6-labeled insulin given without liposomes”, in the series on caco-2 cells, the “labeled insulin present in cells” value is “relatively little labeled insulin present”.

The values are drawn from patent publication US10350169B2, “Compositions and methods for bile acid particles” (UNIVERSITY OF UTAH RESEARCH FOUNDATION, priority 2014, dated 2019).
